Where “and” joins values, the source holds several entries; their conditions need not be identical. Equal values may be shown once. Entries after “also recorded” stand apart in the source; their conditions may differ.
Legend:
[1] = test system: E. coli; assay: MIC in lysogeny broth (LB) at pH 4; type: cell-based
Description: (§1) The MICs are also determined using lysogeny broth (LB) at pH 4 as the growth medium. Under these conditions, Nu-8 is active against E. coli and P. aeruginosa with MICs of 54 and 27 mg/mL, respectively.

[2] = test system: P. aeruginosa; assay: MIC in lysogeny broth (LB) at pH 4; type: cell-based
Description: as §1

[3] = test system: Acinetobacter baumannii (ATCC 19606); assay: Neutropenic lung infection model in mice, lung bacterial burden (Example 25); type: in vivo, BALB/c mice; conditions: for antibacterial effect on A. baumannii vs day 3 vehicle control: 10% solution aerosol once daily, p<0.05; for Log10 CFU/g lung Mean ± SD / Log10 CFU/g lung: Nu-8 (10%), aerosol, 2 h post end of treatment; for Log10 CFU/g lung Mean ± SD: group mean; for Log10 CFU/g lung: individual animals
Description: Neutropenic, BALB/c female mice, all of which were from 6 to 8 weeks of age, were infected intranasally with ˜2×10^7 CFU/lung Acinetobacter baumannii (ATCC 19606). Twenty-four hours after infection; animals were treated by aerosol route with vehicle or Nu-8 (10% solution), once daily for one, three, and five days. Following treatment for 1, 3, and 5 days, animals were terminated, and lung tissues were collected to determine the bacterial load.
The mice were separated into cohorts in accordance with Table 26.
On day −4 (four days before the date of infection), each mouse was dosed with a single intraperitoneal injection of cyclophosphamide equivalent to 150 mg/kg and returned to its cage. On day −1 (one day before infection) each mouse received a dose equivalent to 100 mg/kg of cyclophosphamide.
On day −1, an aliquot from glycerol stocks of Acinetobacter baumannii (ATCC19606) was thawed, inoculated into fresh Casein Soybean Digest Broth (CSDB) and incubated overnight at 37° C.
On the day of infection (Day 0), the overnight culture was checked, centrifuged and the cells were pelleted and resuspended in sterile normal saline to obtain approximately 10^9 CFU/ml Acinetobacter baumannii, which was used for infection. The inoculum was serially diluted ten-fold in sterile CSDB and 0.05 ml of six dilutions was plated onto CSD Agar plates to determine the viable count (CFU/ml) of inoculum.
Animals were divided into different groups as specified in the experimental design (Table 26). Infections were conducted in a biological safety cabinet, with appropriate personnel protection. Mice were placed into an induction chamber and anesthesia was induced by exposing the animals to 3%-5% Isoflurane in an oxygen flow set at approximately 1 liter per minute (LPM). Once the animals were in a sufficiently deep plane of anesthesia, they were removed and infected. Infection was done by instilling 0.02 ml (containing ˜1×10^9 CFU/ml) of the inoculum; 10 μl was instilled into each nostril of the anesthetized animal intra-nasally using a 10 μl pipette (˜2×10^7 CFU/animal). A gentle shaking/mixing of inoculum between two animals was followed for uniform distribution.
The vehicle used for the test compound was saline (0.9% NaCl adjusted to pH 3.5 with citric acid). To make 10% Nu-8 solution, 15 g of compound was weighed and dissolved in 145 ml of 0.9% NaCl; pH of solution was adjusted to 3.5 by adding 2.4 ml of citric acid solution and to this solution, 2.6 ml of 0.9% NaCl solution was added to make up the volume to 150 ml. The same procedure was followed on day 2, 3, 4 and 5.
Treatment was initiated twenty-four hours post infection. Test formulations were administered by aerosol route with nose-only apparatus connected to a nebulizer (Omron Ne-C28 Compressor Nebulizer with a volume capacity of 15 ml, Particle size 3 μm, nebulization rate: 0.5 ml/min, and Aerosol output rate: 0.09 ml/min). The formulation prepared previously was placed into the nebulizer fluid cup; animals were placed in the nose-only apparatus and the entire system was placed inside a Class II Biosafety Cabinet. Animals received nebulization for 20 min, followed by a 30-minute rest and then an additional 20-minute exposure at the same dose concentration (the flow rate and percentage of test material available at the inhalation port was 16% of the initial concentration in the nebulizer if the test compound is in solution).
Groups of animals were euthanized at 2 h post treatment, as specified in the experimental design, by an overdose of CO2 in an appropriate exposure chamber.
The euthanized animals were dipped into 70% ethanol for surface decontamination. Lungs were aseptically excised, weighed, placed in a 2 ml centrifuge tube containing 1 ml of sterile CSDB broth, and homogenized (Omni Tip (220THB handheld)). Serial ten-fold dilutions of the lung homogenates were prepared in sterile CSDB broth and 0.05 ml of four dilutions for each lung was plated onto CSDA agar plates. […]

[4] = test system: Acinetobacter baumannii (ATCC 19606); assay: Clinical signs in the Acinetobacter baumannii lung infection model (Example 25); type: in vivo, BALB/c mice; conditions: treated groups vs control mice
From the text: There was a >3 Log10) CFU/g lung decrease following treatment for 5 days when compared to the vehicle on day 1.

## CCCCOP(=O)(O)OC[C@H]1O[C@@H](n2ccc(N)nc2=O)C[C@@H]1OP(=O)(O)OCCCC [Nu-8, sodium ((2R,3S,5R)-5-(4-amino-2-oxopyrimidin-1(2H)-yl)-3-((butoxyoxidophosphor-yl)oxy)tetrahydrofuran-2-yl)methyl butyl phosphate]
[1]
  MIC: 54 mg/mL
[2]
  MIC: 27 mg/mL
[3]; day 3
  antibacterial effect on A. baumannii vs day 3 vehicle control: significant antibacterial effect; also recorded: significant antibacterial activity
[3]; day 5
  antibacterial effect on A. baumannii vs day 3 vehicle control: significant antibacterial effect; also recorded: significant antibacterial activity
[3]; 10% solution aerosol, day 1, p>0.05
  activity vs vehicle control on day 1: No significant activity
[3]; 3 doses, once daily for 3 days, p < 0.05 vs corresponding vehicle control
  Log10 CFU/g lung Mean ± SD: 4.01 ± 0.72 Log10 CFU/g lung
[3]; 3 doses, once daily for 3 days
  Log10 CFU/g lung: 4.75 Log10 CFU/g lung and 3.02 Log10 CFU/g lung and 4.34 Log10 CFU/g lung and 3.19 Log10 CFU/g lung and 4.29 Log10 CFU/g lung and 4.46 Log10 CFU/g lung
[3]; 5 doses, once daily for 5 days, p < 0.05 vs day 3 vehicle control
  Log10 CFU/g lung Mean ± SD: 2.69 ± 0.16 Log10 CFU/g lung
[3]; 5 doses, once daily for 5 days
  Log10 CFU/g lung: 2.76 Log10 CFU/g lung and 2.51 Log10 CFU/g lung and 2.71 Log10 CFU/g lung and 2.62 Log10 CFU/g lung and 2.96 Log10 CFU/g lung and 2.60 Log10 CFU/g lung
[3]; single dose
  Log10 CFU/g lung Mean ± SD: 5.67 ± 0.47 Log10 CFU/g lung
  Log10 CFU/g lung: 5.51 Log10 CFU/g lung and 6.03 Log10 CFU/g lung and 5.54 Log10 CFU/g lung and 6.30 Log10 CFU/g lung and 5.72 Log10 CFU/g lung and 4.93 Log10 CFU/g lung
[3]; following treatment for 5 days
  decrease in lung burden compared to the vehicle on day 1: > 3 Log10) CFU/g lung
[4]
  piloerection, loss of grooming and respiratory symptoms: decreased piloerection, nasal discharge and gasping symptoms; also recorded: a marked decrease was observed in treated groups

Source: patent US12030908B2, “Antimicrobial compounds, compositions, and uses thereof” (Lakewood Amedex, Inc., priority 2017, dated 2024)
